Assays:
Assay type in all cases: functional
Mus musculus [1] = experiment: Antiinflammatory activity against Swiss mouse assessed as inhibition of TPA-induced edema at 0.5 mg/ear applied simultaneously with TPA measured after 4 hrs
Mus musculus [2] = experiment: Antiinflammatory activity against Swiss mouse assessed as inhibition of arachidonic acid-induced edema at 0.5 mg/ear applied 30 mins before arachidonic acid challenge measured after 1 hr
Mus musculus [3] = species on record: Mus musculus; experiment: Antiinflammatory activity against Swiss mouse chronic dermatitis model assessed as inhibition of TPA-induced tissue myeloperoxidase activity at 0.5 mg/ear applied twice daily for 4 days measured after 6 hrs
Mus musculus [4] = experiment: Antiinflammatory activity against Swiss mouse chronic dermatitis model assessed as inhibition of TPA-induced edema at 0.5 mg/ear applied twice daily for 4 days measured after 6 hrs
Mus musculus [5] = experiment: Antiinflammatory activity against Swiss mouse assessed as inhibition of carrageenan-induced paw volume at 100 mg/kg, po administered 1 hr prior to carrageenan challenge measured after 1 hr
Mus musculus [6] = experiment: Antiinflammatory activity against Swiss mouse assessed as inhibition of carrageenan-induced paw volume at 100 mg/kg, po administered 1 hr prior to carrageenan challenge measured after 5 hrs
Mus musculus [7] = experiment: Antiinflammatory activity against Swiss mouse assessed as inhibition of carrageenan-induced paw volume at 100 mg/kg, po administered 1 hr prior to carrageenan challenge measured after 3 hrs

Structure (SMILES)	inhibition (INH) (Mus musculus [1])	inhibition (INH) (Mus musculus [2])	inhibition (INH) (Mus musculus [3])	inhibition (INH) (Mus musculus [4])	inhibition in vivo at 100 mg/kg (Mus musculus [5])	inhibition in vivo at 100 mg/kg (Mus musculus [6])	inhibition in vivo at 100 mg/kg (Mus musculus [7])
COc1cc(O)c2c(c1)O[C@H](c1ccc(O)cc1)[C@@H](O)C2=O	78%	3%	–	–	–	–	–
COc1cc(O)c2c(c1)O[C@H](c1ccc(O)c(O)c1)[C@@H](OC(C)=O)C2=O	83%	-1%	–	–	–	–	–
C[C@@H]1C[C@H]2[C@@H]3CCC4=CC(=O)C=C[C@]4(C)[C@@]3(F)[C@@H](O)C[C@]2(C)[C@@]1(O)C(=O)CO [DEXAMETHASONE]	–	–	92%	92%	–	–	–
C=C(C(=O)O)[C@@H]1CC[C@@]2(C)CCC[C@@](C)(O)[C@@H]2C1 [ILICIC ACID]	72%	18%	82%	78%	5%	30%	32%
COc1ccc2c(c1)c(CC(=O)O)c(C)n2C(=O)c1ccc(Cl)cc1 [INDOMETHACIN]	91%	–	–	–	–	–	–
CC/C=C\C/C=C\C/C=C\CCCCCCCC(=O)OC(COC(=O)CCCCCCCCCCCCCCC)CO[C@H]1O[C@@H](CO[C@H]2O[C@H](CO)[C@H](O)[C@H](O)[C@H]2O)[C@@H](O)[C@@H](O)[C@@H]1O (some centres undefined) [INUGALACTOLIPID A]	48%	5%	84%	97%	-16%	5%	10%
C=C1C(=O)O[C@H]2CC(=C)[C@H]3CC[C@@](C)(O)[C@@H]3C[C@H]12 [INUVISCOLIDE]	90%	-16%	–	–	–	–	–
O=C1CCN(c2ccccc2)N1 [PHENIDONE]	–	51%	–	–	–	–	–
CCCCC1C(=O)N(c2ccccc2)N(c2ccccc2)C1=O [PHENYLBUTAZONE]	–	–	–	–	54%	43%	58%
COc1cc(O)c2c(=O)c(O)c(-c3ccc(O)cc3)oc2c1 [RHAMNOCITRIN]	78%	6%	–	–	–	–	–

— ChEMBL document CHEMBL1141827, “A glycosyl analogue of diacylglycerol and other antiinflammatory constituents from Inula viscosa” (1999)
